Measured values from PubChem BioAssay AID1963421 (Molecular Pharmacology Branch, DTP, NCI, 2024).

Tested on: 519858-162-T-J1-PDC complex spheroid growth, % test/control
Assay: Anticancer human tumor 519858-162-T-J1-PDC patient-derived colon adenocarcinoma cell line growth inhibition [Asc]
Details: for IC50: curve of first compound; for viability, T/C: stronger effect = lower value; active = viability on the fitted dose curve at most 10% of control; inactive = the rest
Summary of the method: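 Tumor cells were grown as multicellular spheroids with stromal HUVEC and mesenchymal stem cells and treated singly or in combination. Concentrations fell in half-log steps from the clinical Cmax, or from 10 microM where none was known.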

[1] = second compound 0.00316 µM, first compound 0.0316 µM
[2] = second compound 0.00316 µM, first compound 0.1 µM
[3] = second compound 0.00316 µM, first compound 0.316 µM
[4] = second compound 0.00316 µM, first compound 1 µM
[5] = second compound 0.01 µM, first compound 0.0316 µM
[6] = second compound 0.01 µM, first compound 0.1 µM
[7] = second compound 0.01 µM, first compound 0.316 µM
[8] = second compound 0.01 µM, first compound 1 µM
[9] = second compound 0.0316 µM, first compound 0.0316 µM
[10] = second compound 0.0316 µM, first compound 0.1 µM
[11] = second compound 0.0316 µM, first compound 0.316 µM
[12] = second compound 0.0316 µM, first compound 1 µM
[13] = second compound 0.1 µM, first compound 0.0316 µM
[14] = second compound 0.1 µM, first compound 0.1 µM
[15] = second compound 0.1 µM, first compound 0.316 µM
[16] = second compound 0.1 µM, first compound 1 µM
[17] = second compound 0.316 µM, first compound 0.0316 µM
[18] = second compound 0.316 µM, first compound 0.1 µM
[19] = second compound 0.316 µM, first compound 0.316 µM
[20] = second compound 0.316 µM, first compound 1 µM
[21] = second compound 1 µM, first compound 0.0316 µM
[22] = second compound 1 µM, first compound 0.1 µM
[23] = second compound 1 µM, first compound 0.316 µM
[24] = second compound 1 µM, first compound 1 µM
[25] = second compound 0.00316 µM, first compound 0.00316 µM
[26] = second compound 0.00316 µM, first compound 0.01 µM
[27] = second compound 0.01 µM, first compound 0.00316 µM
[28] = second compound 0.01 µM, first compound 0.01 µM
[29] = second compound 0.0316 µM, first compound 0.00316 µM
[30] = second compound 0.0316 µM, first compound 0.01 µM
[31] = second compound 0.1 µM, first compound 0.00316 µM
[32] = second compound 0.1 µM, first compound 0.01 µM
[33] = second compound 0.316 µM, first compound 0.00316 µM
[34] = second compound 0.316 µM, first compound 0.01 µM
[35] = second compound 1 µM, first compound 0.00316 µM
[36] = second compound 1 µM, first compound 0.01 µM
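Note: seven day drug exposure begun three days after spheroid seeding.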
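Throughout, for viability, T/C: 100% = DMSO vehicle wells and lower values mean less viable spheroid.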

C=CC(=O)N1CCN(c2nc(=O)n(-c3c(C)ccnc3C(C)C)c3nc(-c4c(O)cccc4F)c(F)cc23)C(C)C1 (stereo unspecified) + CNC(C)C(=O)NC1CN(S(=O)(=O)c2cccc(S(=O)(=O)N3CCC4CCC(C(=O)NC(c5ccccc5)c5ccccc5)N4C(=O)C(NC(=O)C(C)NC)C3)c2)CCC2CCC(C(=O)NC(c3ccccc3)c3ccccc3)N2C1=O
inactive: viability, T/C [1] 125% | viability, T/C [2] 106% | viability, T/C [3] 98.9% | viability, T/C [4] 75.7% | viability, T/C (second compound 0.00316 µM, first compound 3.16 µM) 88.3% | viability, T/C (second compound 0.00316 µM, first compound 10 µM) 89.6% | viability, T/C [5] 113% | viability, T/C [6] 84% | viability, T/C [7] 101% | viability, T/C [8] 76.1% | viability, T/C (second compound 0.01 µM, first compound 3.16 µM) 85.8% | viability, T/C (second compound 0.01 µM, first compound 10 µM) 92.4% | viability, T/C [9] 104% | viability, T/C [10] 95.4% | viability, T/C [11] 109% | viability, T/C [12] 79.1% | viability, T/C (second compound 0.0316 µM, first compound 3.16 µM) 101% | viability, T/C (second compound 0.0316 µM, first compound 10 µM) 90.8% | viability, T/C [13] 77.9% | viability, T/C [14] 80% | viability, T/C [15] 103% | viability, T/C [16] 90.4% | viability, T/C (second compound 0.1 µM, first compound 3.16 µM) 77.9% | viability, T/C (second compound 0.1 µM, first compound 10 µM) 80.4% | viability, T/C [17] 85.2% | viability, T/C [18] 94.9% | viability, T/C [19] 95.4% | viability, T/C [20] 89.2% | viability, T/C (second compound 0.316 µM, first compound 3.16 µM) 90.5% | viability, T/C (second compound 0.316 µM, first compound 10 µM) 98.4% | viability, T/C [21] 89.7% | viability, T/C [22] 90.3% | viability, T/C [23] 80.3% | viability, T/C [24] 82% | viability, T/C (second compound 1 µM, first compound 3.16 µM) 91.1% | viability, T/C (second compound 1 µM, first compound 10 µM) 88%
> 10000 nM: IC50 (second compound 0.00316 µM) | IC50 (second compound 0.01 µM) | IC50 (second compound 0.0316 µM) | IC50 (second compound 0.1 µM) | IC50 (second compound 0.316 µM) | IC50 (second compound 1 µM)

COc1c(OCCCN2CCOCC2)ccc2c3n(c(=NC(=O)c4cnc(N)nc4)nc12)CCN3 + CNC(C)C(=O)NC1CN(S(=O)(=O)c2cccc(S(=O)(=O)N3CCC4CCC(C(=O)NC(c5ccccc5)c5ccccc5)N4C(=O)C(NC(=O)C(C)NC)C3)c2)CCC2CCC(C(=O)NC(c3ccccc3)c3ccccc3)N2C1=O
237 nM: IC50 (second compound 0.316 µM)
132 nM: IC50 (second compound 0.1 µM)
156 nM: IC50 (second compound 0.0316 µM)
320 nM: IC50 (second compound 0.00316 µM)
162 nM: IC50 (second compound 0.01 µM)
259 nM: IC50 (second compound 1 µM)
inactive: viability, T/C [25] 78.1% | viability, T/C [26] 61% | viability, T/C [1] 68.8% | viability, T/C [2] 65.4% | viability, T/C [3] 48.8% | viability, T/C [4] 27.9% | viability, T/C [27] 83.3% | viability, T/C [28] 89.9% | viability, T/C [5] 85.4% | viability, T/C [6] 53.9% | viability, T/C [7] 53.1% | viability, T/C [8] 34.4% | viability, T/C [29] 82.7% | viability, T/C [30] 78.9% | viability, T/C [9] 67% | viability, T/C [10] 54.9% | viability, T/C [11] 42.1% | viability, T/C [12] 27.6% | viability, T/C [31] 86.5% | viability, T/C [32] 68.2% | viability, T/C [13] 56.9% | viability, T/C [14] 62.5% | viability, T/C [15] 37.1% | viability, T/C [16] 39.1% | viability, T/C [33] 72.5% | viability, T/C [34] 88.5% | viability, T/C [17] 78.3% | viability, T/C [18] 65.9% | viability, T/C [19] 45.1% | viability, T/C [20] 36.4% | viability, T/C [35] 84.4% | viability, T/C [36] 64.9% | viability, T/C [21] 83.7% | viability, T/C [22] 48.3% | viability, T/C [23] 53.6% | viability, T/C [24] 32%

NC1CCC(NC2CC2c2ccccc2)CC1 (stereo unspecified) + CNC(C)C(=O)NC1CN(S(=O)(=O)c2cccc(S(=O)(=O)N3CCC4CCC(C(=O)NC(c5ccccc5)c5ccccc5)N4C(=O)C(NC(=O)C(C)NC)C3)c2)CCC2CCC(C(=O)NC(c3ccccc3)c3ccccc3)N2C1=O
inactive: viability, T/C (second compound 0.00316 µM, first compound 0.000316 µM) 106% | viability, T/C (second compound 0.00316 µM, first compound 0.001 µM) 90.1% | viability, T/C [25] 117% | viability, T/C [26] 112% | viability, T/C [1] 92.4% | viability, T/C [2] 85.3% | viability, T/C (second compound 0.01 µM, first compound 0.000316 µM) 129% | viability, T/C (second compound 0.01 µM, first compound 0.001 µM) 83.7% | viability, T/C [27] 112% | viability, T/C [28] 88.5% | viability, T/C [5] 109% | viability, T/C [6] 106% | viability, T/C (second compound 0.0316 µM, first compound 0.000316 µM) 89% | viability, T/C (second compound 0.0316 µM, first compound 0.001 µM) 111% | viability, T/C [29] 91.9% | viability, T/C [30] 97.4% | viability, T/C [9] 95.5% | viability, T/C [10] 102% | viability, T/C (second compound 0.1 µM, first compound 0.000316 µM) 105% | viability, T/C (second compound 0.1 µM, first compound 0.001 µM) 112% | viability, T/C [31] 121% | viability, T/C [32] 94.9% | viability, T/C [13] 109% | viability, T/C [14] 90% | viability, T/C (second compound 0.316 µM, first compound 0.000316 µM) 77.2% | viability, T/C (second compound 0.316 µM, first compound 0.001 µM) 81.5% | viability, T/C [33] 118% | viability, T/C [34] 81.4% | viability, T/C [17] 92.1% | viability, T/C [18] 102% | viability, T/C (second compound 1 µM, first compound 0.000316 µM) 82.9% | viability, T/C (second compound 1 µM, first compound 0.001 µM) 101% | viability, T/C [35] 115% | viability, T/C [36] 81.3% | viability, T/C [21] 85.8% | viability, T/C [22] 80.3%
> 100 nM: IC50 (second compound 0.00316 µM) | IC50 (second compound 0.01 µM) | IC50 (second compound 0.0316 µM) | IC50 (second compound 0.1 µM) | IC50 (second compound 0.316 µM) | IC50 (second compound 1 µM)
